Reference: patent US20140309210A1, “INDAZOLE COMPOUNDS, COMPOSITIONS AND METHODS OF USE THEREOF” (Genentech, Inc., priority 2011, published 2014)

biological target: T1, purified ITK (Invitrogen PV3875) (Homo sapiens, UniProt Q08881); assay: ITK peptide phosphorylation assay (Caliper LabChip or LCMS); assay type: biochemical; conditions: Table 2, Examples 1-140, class symbols
T1 construct: purchased Invitrogen PV3875
T1 sequence (Q08881 1-620): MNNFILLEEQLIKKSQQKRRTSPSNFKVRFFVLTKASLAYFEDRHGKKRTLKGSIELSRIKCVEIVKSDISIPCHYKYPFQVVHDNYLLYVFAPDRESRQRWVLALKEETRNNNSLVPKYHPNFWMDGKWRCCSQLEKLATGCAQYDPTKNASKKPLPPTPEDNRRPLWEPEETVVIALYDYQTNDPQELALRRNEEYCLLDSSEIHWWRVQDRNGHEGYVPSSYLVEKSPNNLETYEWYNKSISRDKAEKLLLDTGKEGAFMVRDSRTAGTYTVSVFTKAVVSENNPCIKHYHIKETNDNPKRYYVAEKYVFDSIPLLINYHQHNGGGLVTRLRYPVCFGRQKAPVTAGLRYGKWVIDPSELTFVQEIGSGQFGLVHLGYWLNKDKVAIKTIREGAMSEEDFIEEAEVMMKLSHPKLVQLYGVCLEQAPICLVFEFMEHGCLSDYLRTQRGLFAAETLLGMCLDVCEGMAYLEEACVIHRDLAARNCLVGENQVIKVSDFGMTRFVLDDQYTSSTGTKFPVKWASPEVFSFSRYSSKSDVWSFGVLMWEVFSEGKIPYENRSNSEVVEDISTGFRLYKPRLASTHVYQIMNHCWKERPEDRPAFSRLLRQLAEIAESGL
Procedure: The ability of purified ITK (Invitrogen PV3875) to catalyze peptide phosphorylation is monitored using a Caliper LabChip 3000 microfluidic unit (Caliper assay) or by liquid chromatography-mass spectrometry (LCMS) using a Waters Acquity system (LCMS assay). […] Reactions are quenched by the addition of 2,2′,2″,2′″-(ethane-1,2-diyldinitrilo)tetraacetic acid (50 mM final). Non-phosphorylated substrate and phosphorylated product peptides are separated and quantified using a Caliper LabChip 3000 instrument. […] Reactions are quenched by the addition of trichloroacetic acid (5% v/v final). Non-phosphorylated substrate and phosphorylated product peptides are separated by ultra performance LC and detected by a coupled triple quadrupole MS device applying multiple reaction monitoring (MRM) for quantification. The area of the MRM-extracted mass signal is used to assess the inhibition by test compounds. Equilibrium dissociation constant (Ki) values for ITK inhibitors are calculated from plots of activity vs. inhibitor concentration using Morrison's quadratic equation that accounts for the potential of tight binding, and by also applying the conversion factor that accounts for competitive inhibition and the concentration of ATP used in the assay relative to its apparent Michaelis constant (Km,app).

| Ki | SMILES |
| --- | --- |
| 1 to 100 nM | NC(=O)c1cccc(Cn2cc(NC(=O)c3n[nH]c4cc(-c5cccnc5)ccc34)cn2)c1 [Example 31, N-[1-[(3-carbamoylphenyl)methyl]pyrazol-4-yl]-6-(3-pyridyl)-1H-indazole-3-carboxamide] |
| 1 to 100 nM | Nc1cc(Cn2cc(NC(=O)c3n[nH]c4cc(-c5cccnc5)ccc34)cn2)ccn1 [Example 32, N-[1-[(2-amino-4-pyridyl)methyl]pyrazol-4-yl]-6-(3-pyridyl)-1H-indazole-3-carboxamide] |
| 1 to 100 nM | CNC(=O)c1ccc(Cn2cc(NC(=O)c3n[nH]c4cc(-c5cccnc5)ccc34)cn2)o1 [Example 33, N-[1-[[5-(methylcarbamoyl)-2-furyl]methyl]pyrazol-4-yl]-6-(3-pyridyl)-1H-indazole-3-carboxamide] |
| 1 to 100 nM | O=C(Nc1cnn(Cc2cscn2)c1)c1n[nH]c2cc(-c3cccnc3)ccc12 [Example 34, 6-(3-pyridyl)-N-[1-(thiazol-4-ylmethyl)pyrazol-4-yl]-1H-indazole-3-carboxamide] |
| 1 to 100 nM | O=C(O)c1ccc(Cn2cc(NC(=O)c3n[nH]c4cc(-c5cn[nH]c5)ccc34)cn2)o1 [Example 35, 5-(4-{[6-(1H-Pyrazol-4-yl)-1H-indazole-3-carbonyl]-amino}-pyrazol-1-ylmethyl)-furan-2-carboxylic acid] |
| 0.01 to 1 nM | O=C(Nc1cnn(Cc2cccc(-c3cccnc3)c2)c1)c1n[nH]c2cc(-c3cn[nH]c3)ccc12 [Example 36, 6-(1H-Pyrazol-4-yl)-1H-indazole-3-carboxylic acid [1-(3-pyridin-3-yl-benzyl)-1H-pyrazol-4-yl]-amide] |
| 0.01 to 1 nM | O=C(Nc1cnn(Cc2cccc(-c3ccncc3)c2)c1)c1n[nH]c2cc(-c3cn[nH]c3)ccc12 [Example 37, 6-(1H-Pyrazol-4-yl)-1H-indazole-3-carboxylic acid [1-(3-pyridin-4-yl-benzyl)-1H-pyrazol-4-yl]-amide] |
| 1 to 100 nM | O=C(Nc1cnn(Cc2cccc(-c3ccccn3)c2)c1)c1n[nH]c2cc(-c3cn[nH]c3)ccc12 [Example 38, 6-(1H-Pyrazol-4-yl)-1H-indazole-3-carboxylic acid [1-(3-pyridin-2-yl-benzyl)-1H-pyrazol-4-yl]-amide] |
| 0.01 to 1 nM | CN1CCN(c2cccc(Cn3cc(NC(=O)c4n[nH]c5cc(-c6cn[nH]c6)ccc45)cn3)c2)CC1 [Example 39, N-[1-[[3-(4-methylpiperazin-1-yl)phenyl]methyl]pyrazol-4-yl]-6-(1H-pyrazol-4-yl)-1H-indazole-3-carboxamide] |
| 0.01 to 1 nM | O=C(Nc1cnn(Cc2cccc(N3CCOCC3)c2)c1)c1n[nH]c2cc(-c3cn[nH]c3)ccc12 [Example 40, N-[1-[(3-morpholinophenyl)methyl]pyrazol-4-yl]-6-(1H-pyrazol-4-yl)-1H-indazole-3-carboxamide] |
| 1 to 100 nM | O=C(Nc1cnn(Cc2csc(N3CCOCC3)n2)c1)c1n[nH]c2cc(-c3cn[nH]c3)ccc12 [Example 41, N-[1-[(2-morpholinothiazol-4-yl)methyl]pyrazol-4-yl]-6-(1H-pyrazol-4-yl)-1H-indazole-3-carboxamide] |
| 1 to 100 nM | CN1CCN(c2nc(Cn3cc(NC(=O)c4n[nH]c5cc(-c6cn[nH]c6)ccc45)cn3)cs2)CC1 [Example 42, N-[1-[[2-(4-methylpiperazin-1-yl)thiazol-4-yl]methyl]pyrazol-4-yl]-6-(1H-pyrazol-4-yl)-1H-indazole-3-carboxamide] |
| 1 to 100 nM | O=C(Nc1cnn(Cc2cscn2)c1)c1n[nH]c2cc(-c3cc[nH]n3)ccc12 [Example 43, 6-(1H-Pyrazol-3-yl)-1H-indazole-3-carboxylic acid (1-thiazol-4-ylmethyl-1H-pyrazol-4-yl)-amide] |
| 1 to 100 nM | N#Cc1cncc(-c2ccc3c(C(=O)Nc4cnn(Cc5cscn5)c4)n[nH]c3c2)c1 [Example 44, 6-(5-Cyano-pyridin-3-yl)-1H-indazole-3-carboxylic acid (1-thiazol-4-ylmethyl-1H-pyrazol-4-yl)-amide] |
